Entries after “also recorded” stand apart in the source; their conditions may differ.

The results in this text go back to article PMC10998878, “Inhibition of acyl-CoA binding protein (ACBP) by means of a GABAARγ2-derived peptide” (Cell Death & Disease, 2024).

One test deals with C57BL/6 mice. Nature of the test: Food intake after intravenous injection. Particulars: i.v., RecACBP/DBI 0.5 mg/kg + peptide 5× molar excess (pre-incubated 16 h, 4 °C), cumulative food intake 30 min. Format: in vivo, mouse. As to the method: Prior to experimentation, mice were subjected to 24 h starvation followed by individual housing and acclimatization in individual cages (2 h). Subsequently, mice were intravenously (i.v.) injected with recombinant ACBP/DBI protein (RecACBP/DBI) (total volume of 200 μL, 0.5 mg/kg body weight), either alone or in combination with GABAARγ2 peptides (5× molar excess). Cumulative food intake was then analyzed as previously described. Prior to i.v. injections, the RecACBP mixes were pre-incubated (16 h, 4 °C) with GABAARγ2 peptides.

Test [1] has as its system liver autophagy, C57BL/6 mice. The test is described as follows: Liver autophagy activation in vivo (LC3 lipidation). On the set-up: species or system mouse. Particulars: C57BL/6 male mice, peptide 5 mg/kg i.v. 4 h and 30 min before sacrifice, with or without leupeptin 30 mg/kg i.p., LC3 immunoblot, n = 5. As to the method: Ten-week-old C57BL/6 male mice were injected with GABAARγ2 peptides (5 mg/kg, i.v., dissolved in PBS) 4 h and 30 min before sacrifice. For inhibition of the autophagy flux, leupeptin (Leu, 30 mg/kg B.W., dissolved in PBS) was injected 2 h before sacrifice via an intraperitoneal (i.p.) injection. Control animals were i.v. injected with the vehicle (DMSO, 0.01%) and i.p. injected with PBS. All animals were sacrificed, and livers were snap-frozen in liquid nitrogen and stored at −80 °C.
Protein lysates were prepared from liver, epididymal white adipose tissue (eWAT), brown adipose tissue (BAT), muscle, heart or Hep55.1c cells. Immunoblot analysis was performed for GABAARγ2 (Abcam #ab87328), mouse ACBP/DBI (Abcam, #ab231910), Human ACBP (Santa-Cruz #sc-376853), MAP1LC3B (#2775, Cell Signaling Technologies), and β-actin (Abcam, #ab49900), as previously described..
(A western blot detects proteins with antibodies after separation by electrophoresis.)

With INMEYTIDIFFAQTWYDRRL [GABAARγ2-EP-WT], the “effect on RecACBP/DBI-induced hyperphagy” value in the test on C57BL/6 mice (n = 4 to 9) was “abolished; also recorded: efficiently blocked”; in the test on C57BL/6 mice (n = 4 to 9, listed as GABAARγ2-derived eicosapeptide) it was “blocked appetite stimulation by recombinant ACBP/DBI in vivo”. Besides, the “activation of autophagy in the liver” value is reported as “activation of autophagy in the liver was induced” in test [1] and “induced autophagy in the liver” in test [1] (listed as GABAARγ2-derived eicosapeptide).
